The values below come from paper PMC7067850, “Identification of highly potent and selective inhibitor, TIPTP, of the p22phox-Rubicon axis as a therapeutic agent for rheumatoid arthritis” (Scientific Reports, 2020).

One data set addresses T1, CYP1A2 (Homo sapiens, UniProt P05177).
T1 construct: To human liver microsomes (0.25 mg/mL); from tissue; host or cells: human liver microsomes
T1 sequence (P05177 1-516): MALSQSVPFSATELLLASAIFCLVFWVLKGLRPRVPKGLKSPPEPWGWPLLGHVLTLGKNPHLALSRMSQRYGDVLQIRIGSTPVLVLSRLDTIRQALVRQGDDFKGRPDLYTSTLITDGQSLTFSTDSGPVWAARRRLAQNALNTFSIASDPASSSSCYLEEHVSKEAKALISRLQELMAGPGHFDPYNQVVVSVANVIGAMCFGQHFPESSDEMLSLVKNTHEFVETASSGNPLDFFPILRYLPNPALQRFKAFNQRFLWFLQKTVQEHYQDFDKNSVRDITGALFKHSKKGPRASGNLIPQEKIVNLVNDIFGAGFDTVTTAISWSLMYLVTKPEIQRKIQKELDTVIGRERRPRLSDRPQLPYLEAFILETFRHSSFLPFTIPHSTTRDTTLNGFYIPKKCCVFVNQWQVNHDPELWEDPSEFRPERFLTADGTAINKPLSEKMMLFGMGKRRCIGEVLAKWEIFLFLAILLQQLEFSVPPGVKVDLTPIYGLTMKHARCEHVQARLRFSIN
Briefly: CYP450 inhibition assay in human liver microsomes. Type of data set: in vitro ADME. As to the method: (§1) All of CYP inhibition, microsomal stability and plasma stability experiments were performed by New Drug Development Center, the Daegu-Gyeongbuk Medical Innovation Foundation (DGMIF), South Korea. To human liver microsomes (0.25 mg/mL), 0.1 M phosphate buffer (pH 7.4), a cocktail of five probe substrates (Phenacetin 50 μM, Diclofenac 10 μM, S-mephenytoin 100 μM, Dextromethorphan 5 μM, and Midazolam 2.5 μM), and tested compounds were added at concentrations of 0 μM (as a control) and 10 μM. After incubation at 37 °C for 5 min, NADPH generation system solution was also added and incubated at 37 °C for 15 min again. To terminate the reaction, acetonitrile including internal standard (Terfenadine) was added, and the solution was centrifuged for 5 min (14 000 rpm, 4 °C). The supernatant was then injected into the LC-MS/MS system to simultaneously analyze the metabolites of the probe substrates and evaluate the % CYP inhibition of the tested compound.
(Microsomes from liver hold many membrane-bound enzymes, among them those of drug oxidation.)

Another data set addresses T2, CYP2D6 (Homo sapiens, UniProt P10635).
T2 construct: To human liver microsomes (0.25 mg/mL); from tissue; host or cells: human liver microsomes
Briefly: CYP450 inhibition assay in human liver microsomes. Format: in vitro ADME. As to the method: as §1

The target of another data set is T3, CYP3A4 (Homo sapiens, UniProt P08684).
T3 construct: To human liver microsomes (0.25 mg/mL); from tissue; host or cells: human liver microsomes
T3 sequence (P08684 whole entry): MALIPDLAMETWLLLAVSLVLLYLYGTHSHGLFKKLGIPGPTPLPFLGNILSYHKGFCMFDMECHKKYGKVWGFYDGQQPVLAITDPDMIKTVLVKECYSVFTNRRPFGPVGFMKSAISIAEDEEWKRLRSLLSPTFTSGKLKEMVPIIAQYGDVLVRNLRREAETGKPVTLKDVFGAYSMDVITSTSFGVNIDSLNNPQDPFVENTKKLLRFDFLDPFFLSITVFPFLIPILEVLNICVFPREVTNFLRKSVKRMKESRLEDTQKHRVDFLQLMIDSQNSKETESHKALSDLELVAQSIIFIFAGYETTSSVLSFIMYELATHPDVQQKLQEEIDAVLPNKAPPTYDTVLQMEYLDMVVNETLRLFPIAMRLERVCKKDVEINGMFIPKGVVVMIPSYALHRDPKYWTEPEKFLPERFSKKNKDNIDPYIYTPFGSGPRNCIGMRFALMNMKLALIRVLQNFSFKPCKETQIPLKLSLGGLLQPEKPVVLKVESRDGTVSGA
In words: CYP450 inhibition assay in human liver microsomes. Format: in vitro ADME. As for the experimental part:
as §1

For data set [1], the system named is collagen antibody-induced arthritis. Briefly: Collagen antibody-induced arthritis (CAIA) mouse model, mice transduced with Ad-Rubicon. Format: in vivo. As for the experimental part: Collagen antibody-induced arthritis mouse model was induced as previously described. Mice received a single‐dose intravenous injection of anti-type II collagen antibody cocktail (8 mg/mouse) (Arthrogen‐CIA Arthritogenic Monoclonal Antibody, no. 53010; Chondrex) on day −3 and an intraperitoneal injection of 100 μg of lipopolysaccharide on day 0 and were then monitored for the indicated times. Mice were sacrificed under anesthesia for the indicated times and knee joints were isolated. All animal-related procedures were reviewed and approved by the Institutional Animal Care and Use Committee of the Hanyang University (protocol 2017–0219). All animal experiments were performed in accordance with Korean Food and Drug Administration guidelines. […]
Figure 5 TIPTP protects Rubicon-expressed CAIA mice mortality. […] (a) The survival of CAIA mice was monitored for 15 days and mortality was measured for n = 10 mice per group. […] (b) Clinical arthritis score and swelling of paws, or (c) representative H&E staining of the ankle joints of each group were determined at 9 days of CAIA (left). […] Statistical significance was determined by two-way analysis of variance (ANOVA) with Tukey’s posttest; **P < 0.01 compared with Ad-Vector+Vehicle (a). […]
Arthritis mice were evaluated for disease progression three times a week as follows ^1,2. […]

T2 sequence (P10635 whole entry): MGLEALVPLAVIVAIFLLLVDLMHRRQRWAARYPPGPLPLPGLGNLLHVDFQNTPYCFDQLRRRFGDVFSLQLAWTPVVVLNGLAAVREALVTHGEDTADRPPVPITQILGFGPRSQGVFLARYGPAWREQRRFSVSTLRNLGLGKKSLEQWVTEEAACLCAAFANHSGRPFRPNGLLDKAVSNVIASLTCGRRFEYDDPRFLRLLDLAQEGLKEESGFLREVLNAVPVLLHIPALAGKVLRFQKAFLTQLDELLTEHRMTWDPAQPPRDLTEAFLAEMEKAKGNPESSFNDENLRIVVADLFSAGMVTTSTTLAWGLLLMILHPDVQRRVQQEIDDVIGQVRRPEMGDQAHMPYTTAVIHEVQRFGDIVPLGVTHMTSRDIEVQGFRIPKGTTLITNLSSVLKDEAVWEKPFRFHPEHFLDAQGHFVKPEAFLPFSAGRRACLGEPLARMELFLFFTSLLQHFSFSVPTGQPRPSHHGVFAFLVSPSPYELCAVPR

In the case of `C[C@@H](Oc1cccc(-n2cc3c(n2)CCCC3)c1)C(=O)Nc1nnc(C(F)(F)F)s1` [TIPTP, (R)-2-(3-(4,5,6,7-tetrahydro-2H-indazol-2-yl)phenoxy)-N-(5-(trifluoromethyl)-1,3,4-thiadiazol-2-yl)propanamide], the “CYP (% of control activity @ 10 μM) 1A2” value at CYP1A2 came out at 45.7%. On CYP2D6 (10 μM), the “CYP (% of control activity @ 10 μM) 2D6” value was 98.2%. For the same molecule, on CYP2D6 (in words), the “effect on the CYP2D6 isozyme” value was “negligible”. Also, the “CYP (% of control activity @ 10 μM) 3A4” value at CYP3A4 stood at 76.6%. Moreover, in data set [1] (CAIA mice transduced with Ad-Rubicon, TIPTP every 2 days intraperitoneal, monitored 15 days (Fig. 5a)), the survival rate is listed as 90%. The “arthritic clinical scores, paw swelling, and histopathological evaluation vs vehicle” value in data set [1] (Rubicon-expressing and vector CAIA mice (Fig. 5b,c)) is on record as “markedly decreased”.
